Patent publication US11633459B2, “GIP derivatives and uses thereof” (priority 2018, dated 2023)
*1 amine or outer side, *2 acyl side, *3 side chain or, on linkers, in order; H or OH if unused. Where a SMILES comes first, the peptide text is derived from it. Where no end group is shown, it is not given here. Side-chain parts run from the residue outwards. [ ]: non-standard residue; d: D form. The star is where a group is joined. X1 = O=C(O)CCCCCCCCCCCCCCCCCCC(=O)NCC1CCC(C(=O)*)CC1; C18 diacid = O=C(O)CCCCCCCCCCCCCCCCC(=O)*; γGlu = O=C(O)[C@H](CCC(=O)[*:2])N[*:1]; Nle = CCCC[C@H](N)C(=O)O; Aib = CC(C)(N)C(=O)O

Columns and labels:
[1] = Pharmacokinetic study in minipigs, terminal half-life after i.v. administration; conditions: female, Göttingen, minipig, plasma, iv, 5 nmol/kg
Protocol: Pharmacokinetic Study in Minipigs
The purpose of this study is to determine the half-life in vivo of the derivatives of the present invention after i.v. administration to minipigs, i.e. the prolongation of their time in the body and thereby their time of action. This is done in a pharmacokinetic (PK) study, where the terminal half-life of the derivative in question is determined. By terminal half-life is generally meant the period of time it takes to halve a certain plasma concentration, measured after the initial distribution phase.
Female Göttingen minipigs were obtained from Ellegaard Göttingen Minipigs (Dalmose, Denmark) approximately 7-14 months of age and weighing from approximately 16-35 kg were used in the studies. The minipigs were housed individually and fed restrictedly once daily with SDS minipig diet (Special Diets Services, Essex, UK).
After at 3 weeks of acclimatisation two permanent central venous catheters were implanted in vena cava caudalis in each animal. The animals were allowed 1 week recovery after the surgery, and were then used for repeated pharmacokinetic studies with a suitable wash-out period between successive derivative dosing.
Blood samples (for example 0.8 ml) were collected in EDTA buffer (8 mM) and then centrifuged at 4° C. and 1942G for 10 minutes.
Individual plasma concentration-time profiles were analysed by a non-compartmental model in Phoenix WinNonLin ver. […] (Pharsight Inc., Mountain View, Calif., USA), and the resulting terminal half-lives (harmonic mean) determined.

human GIP receptor = molecular target: T1, human GIP receptor (Homo sapiens, UniProt P48546); assay: In vitro potency, CRE luciferase reporter gene assay, whole BHK cells expressing human GIP receptor; assay type: cell-based; conditions: 0.2% HSA
T1 construct: expressed in transfected cells; host or cells: BHK cells (parent line BHKTS13), clone BHK CRE luc2P hGIPR clone #5
T1 sequence (P48546 22-466): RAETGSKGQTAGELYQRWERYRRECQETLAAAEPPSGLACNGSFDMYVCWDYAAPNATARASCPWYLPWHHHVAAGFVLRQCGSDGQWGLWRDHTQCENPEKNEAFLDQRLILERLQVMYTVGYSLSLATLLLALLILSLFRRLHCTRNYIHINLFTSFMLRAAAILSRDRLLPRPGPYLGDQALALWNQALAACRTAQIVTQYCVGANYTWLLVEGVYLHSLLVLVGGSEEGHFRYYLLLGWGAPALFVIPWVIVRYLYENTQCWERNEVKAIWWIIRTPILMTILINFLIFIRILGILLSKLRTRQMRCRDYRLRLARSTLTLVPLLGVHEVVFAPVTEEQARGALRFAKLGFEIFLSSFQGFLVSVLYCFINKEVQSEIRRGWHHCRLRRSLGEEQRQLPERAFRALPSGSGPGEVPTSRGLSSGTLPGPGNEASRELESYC
Protocol: (§1) In Vitro Potency (CRE Luciferase; Whole Cells)
(§2) The in vitro potency is the measure of human GIP, GLP-1 or glucagon receptor activation, respectively, in a whole cell assay.
(§3) In vitro potency was determined by measuring the response of the human GIP, GLP-1 or glucagon receptor in a reporter gene assay in individual cell lines. […] When the respective receptor is activated it results in the production of cAMP, which in turn results in the luciferase protein being expressed. When assay incubation is completed the luciferase substrate (luciferin) is added and the enzyme converts luciferin to oxyluciferin to produce bioluminescence. The luminescence is measured as the readout for the assay.
(§4) The cells were derived from a clone containing the CRE luciferase element and were established by further transfection with the respective receptor to obtain the current clone.
(§5) The cells were cultured at 5% CO2 in Cell Culture Medium. They were aliquoted and stored in liquid nitrogen. The cells were kept in passage and were seeded out the day before each assay.
(§6) The Assay Buffer consisted of 1% ovalbumin and 0.1% Pluronic F-68 in Assay Medium with the addition of human serum albumin at twice the indicated concentrations.
(§7) 1) Cells were plated at 5000 cells/well and incubated overnight.
(§8) 2) Cells were washed three times in PBS.
(§9) 3) Assay Medium (50 μl aliquot) with or without serum albumin was added to each well in the assay plate.
(§10) 4) Stocks of the test compounds and reference compounds were diluted to a concentration of 0.2 μM in Assay Buffer. […] 8) The cells were washed three times with PBS plus some liquid in each well. 9) A 100 μl aliquot of steadylite plus reagent was added to each well of the assay plate (reagent was light sensitive). 10) Each assay plate was covered with aluminum foil to protect it from light and shaken for 30 min at room temperature. 11) Each assay plate was read in a microtiter plate reader. Calculations and Results
The data from the microtiter plate reader was transferred to GraphPad Prism software. The software performs a non-linear regression (log(agonist) vs response).
A minimum of two replicates was measured for each sample. The reported values are averages of the replicates.

human glucagon receptor = molecular target: T2, human glucagon receptor (Homo sapiens, UniProt P47871); assay: In vitro potency, CRE luciferase reporter gene assay, whole BHK cells expressing human glucagon receptor; assay type: cell-based; conditions: 0.2% HSA
T2 construct: expressed in transfected cells; host or cells: BHK cells (parent line BHKTS13), clone BHK CRE luc2P hGCGR clone #18
Protocol: as §1, §2, §3, §4, §5, §6, §7, §8, §9, §10
(§11) The data from the microtiter plate reader was transferred to GraphPad Prism software. […]
(§12) A minimum of two replicates was measured for each sample. […]

human GLP-1 receptor = molecular target: T3, human GLP-1 receptor (Homo sapiens, UniProt P43220); assay: In vitro potency, CRE luciferase reporter gene assay, whole BHK cells expressing human GLP-1 receptor; assay type: cell-based; conditions: 0.2% HSA
T3 construct: expressed in transfected cells; host or cells: BHK cells (parent line BHKTS13), clone BHK CRE luc2P hGLP-1R clone #6
Protocol: as §1, §2, §3, §4, §5, §6, §7, §8, §9, §10, §11, §12

T2 sequence (P47871 26-477): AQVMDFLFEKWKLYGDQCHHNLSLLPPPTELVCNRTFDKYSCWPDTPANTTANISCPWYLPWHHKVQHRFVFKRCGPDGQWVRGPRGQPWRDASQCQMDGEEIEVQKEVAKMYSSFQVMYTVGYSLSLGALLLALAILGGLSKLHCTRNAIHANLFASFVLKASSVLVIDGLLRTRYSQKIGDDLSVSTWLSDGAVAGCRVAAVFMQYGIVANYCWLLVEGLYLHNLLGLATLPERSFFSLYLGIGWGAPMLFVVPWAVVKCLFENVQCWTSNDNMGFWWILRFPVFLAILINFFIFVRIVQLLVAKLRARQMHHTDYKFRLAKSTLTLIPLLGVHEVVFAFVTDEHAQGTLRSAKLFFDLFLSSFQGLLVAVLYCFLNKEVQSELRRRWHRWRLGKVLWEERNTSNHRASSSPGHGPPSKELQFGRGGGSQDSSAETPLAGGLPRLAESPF
T3 sequence (P43220 24-463): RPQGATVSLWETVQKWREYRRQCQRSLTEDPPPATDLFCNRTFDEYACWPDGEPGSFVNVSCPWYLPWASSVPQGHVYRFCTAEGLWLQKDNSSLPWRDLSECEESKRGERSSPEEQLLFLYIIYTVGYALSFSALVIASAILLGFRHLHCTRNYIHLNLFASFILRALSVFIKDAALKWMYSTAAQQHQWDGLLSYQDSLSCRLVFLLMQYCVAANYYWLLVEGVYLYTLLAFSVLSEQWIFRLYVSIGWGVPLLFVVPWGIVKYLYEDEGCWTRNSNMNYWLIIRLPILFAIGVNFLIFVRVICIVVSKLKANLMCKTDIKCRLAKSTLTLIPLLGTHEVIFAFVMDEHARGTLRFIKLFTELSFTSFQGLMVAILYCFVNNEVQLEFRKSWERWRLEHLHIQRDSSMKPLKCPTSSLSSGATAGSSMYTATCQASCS

Compound | half-life [1] | EC50 (human GIP receptor) | EC50 (human glucagon receptor) | EC50 (human GLP-1 receptor)
CCCC[C@H](NC(=O)[C@H](C)NC(=O)[C@@H](NC(=O)[C@H](CO)NC(=O)[C@H](Cc1ccc(O)cc1)NC(=O)[C@H](CC(=O)O)NC(=O)[C@H](CO)NC(=O)[C@@H](NC(=O)[C@H](Cc1ccccc1)NC(=O)[C@@H](NC(=O)CNC(=O)[C@H](CCC(=O)O)NC(=O)C(C)(C)NC(=O)[C@@H](N)Cc1ccc(O)cc1)[C@@H](C)O)[C@@H](C)CC)[C@@H](C)CC)C(=O)N[C@@H](CC(=O)O)C(=O)N[C@@H](CCCCN)C(=O)N[C@H](C(=O)N[C@@H](CCCNC(=N)N)C(=O)N[C@@H](CCC(N)=O)C(=O)N[C@@H](CCC(N)=O)C(=O)N[C@@H](CC(=O)O)C(=O)N[C@@H](Cc1ccccc1)C(=O)N[C@H](C(=O)N[C@@H](CCCCNC(=O)CC[C@H](NC(=O)CC[C@H](NC(=O)CC[C@H](NC(=O)C1CCC(CNC(=O)CCCCCCCCCCCCCCCCCCC(=O)O)CC1)C(=O)O)C(=O)O)C(=O)O)C(=O)N[C@@H](Cc1c[nH]c2ccccc12)C(=O)N[C@@H](CC(C)C)C(=O)N[C@@H](CC(C)C)C(=O)N[C@@H](C)C(=O)N[C@@H](CCC(N)=O)C(=O)N[C@@H](CCCCN)C(=O)NCC(=O)O)C(C)C)[C@@H](C)CC (stereo partly drawn) [Compound 4, N{Epsilon-24}-[(4S)-4-carboxy-4-[[(4S)-4-carboxy-4-[[(4S)-4-carboxy-4-[[4-[(19-carboxynonadecanoylamino)methyl]cyclohexanecarbonyl]amino]butanoyl]amino]butanoyl]amino]butanoyl]-[Aib2,Nle14,Arg18,Lys24]-hGIP(1-31)] | 124 h | 0.0721 nM | – | –
CCCC[C@H](NC(=O)[C@H](C)NC(=O)[C@@H](NC(=O)[C@H](CO)NC(=O)[C@H](Cc1ccc(O)cc1)NC(=O)[C@H](CC(=O)O)NC(=O)[C@H](CO)NC(=O)[C@@H](NC(=O)[C@H](Cc1ccccc1)NC(=O)[C@@H](NC(=O)CNC(=O)[C@H](CCC(=O)O)NC(=O)C(C)(C)NC(=O)[C@@H](N)Cc1ccc(O)cc1)[C@@H](C)O)[C@@H](C)CC)[C@@H](C)CC)C(=O)N[C@@H](CC(=O)O)C(=O)N[C@@H](CCCCN)C(=O)N[C@H](C(=O)N[C@@H](CCCNC(=N)N)C(=O)N[C@@H](CCC(N)=O)C(=O)NC(C)(C)C(=O)N[C@@H](CC(=O)O)C(=O)N[C@@H](Cc1ccccc1)C(=O)N[C@H](C(=O)N[C@@H](CCCCNC(=O)CC[C@H](NC(=O)CC[C@H](NC(=O)CC[C@H](NC(=O)C1CCC(CNC(=O)CCCCCCCCCCCCCCCCCCC(=O)O)CC1)C(=O)O)C(=O)O)C(=O)O)C(=O)N[C@@H](Cc1c[nH]c2ccccc12)C(=O)N[C@@H](CC(C)C)C(=O)N[C@@H](CC(C)C)C(=O)N[C@@H](C)C(=O)N[C@@H](CCC(N)=O)C(=O)N[C@@H](CCCCN)C(=O)NCC(=O)O)C(C)C)[C@@H](C)CC (stereo partly drawn) [Compound 12, N{Epsilon-24}-[(4S)-4-carboxy-4-[[(4S)-4-carboxy-4-[[(4S)-4-carboxy-4-[[4-[(19-carboxynonadecanoylamino)methyl]cyclohexanecarbonyl]amino]butanoyl]amino]-butanoyl]amino]butanoyl]-[Aib2,Nle14,Arg18,Aib20,Lys24]-hGIP(1-31)] (H-Y[Aib]EGTFISDYSIA[Nle]DKIRQ[Aib]DFVK([γGlu-γGlu-γGlu-X1])WLLAQKG-OH) | 132 h | 0.0712 nM | – | –
CCCC[C@H](NC(=O)[C@H](C)NC(=O)[C@@H](NC(=O)[C@H](CO)NC(=O)[C@H](Cc1ccc(O)cc1)NC(=O)[C@H](CC(=O)O)NC(=O)[C@H](CO)NC(=O)[C@@H](NC(=O)[C@H](Cc1ccccc1)NC(=O)[C@@H](NC(=O)CNC(=O)[C@H](CCC(=O)O)NC(=O)C(C)(C)NC(=O)[C@@H](N)Cc1ccc(O)cc1)[C@@H](C)O)[C@@H](C)CC)[C@@H](C)CC)C(=O)N[C@@H](CC(=O)O)C(=O)N[C@@H](CCCCN)C(=O)N[C@H](C(=O)N[C@@H](Cc1c[nH]cn1)C(=O)N[C@@H](CCC(N)=O)C(=O)N[C@@H](CCC(N)=O)C(=O)N[C@@H](CC(=O)O)C(=O)N[C@@H](Cc1ccccc1)C(=O)N[C@H](C(=O)N[C@@H](CCCCNC(=O)CC[C@H](NC(=O)CC[C@H](NC(=O)CC[C@H](NC(=O)C1CCC(CNC(=O)CCCCCCCCCCCCCCCCCCC(=O)O)CC1)C(=O)O)C(=O)O)C(=O)O)C(=O)N[C@@H](Cc1c[nH]c2ccccc12)C(=O)N[C@@H](CC(C)C)C(=O)N[C@@H](CC(C)C)C(=O)N[C@@H](C)C(=O)N[C@@H](CCC(N)=O)C(=O)N[C@@H](CCCCN)C(=O)N1CCC[C@H]1C(N)=O)C(C)C)[C@@H](C)CC (stereo partly drawn) [Compound 27, N{Epsilon-24}-[(4S)-4-carboxy-4-[[(4S)-4-carboxy-4-[[(4S)-4-carboxy-4-[[4-[(19-carboxynonadecanoylamino)methyl]cyclohexanecarbonyl]amino]butanoyl]amino]-butanoyl]amino]butanoyl]-[Aib2,Nle14,Lys24,Pro31]-hGIP(1-31) amide] (H-Y[Aib]EGTFISDYSIA[Nle]DKIHQQDFVK([γGlu-γGlu-γGlu-X1])WLLAQKP-NH2) | 147 h | – | – | –

Continued, values first:

half-life [1] | EC50 (human GIP receptor) | EC50 (human glucagon receptor) | EC50 (human GLP-1 receptor) | Compound
– | 0.0059 nM | > 100 nM | > 100 nM | H-Y[Aib]EGTFISDYSIA[Nle]DKIHQQDFVK([γGlu-γGlu-γGlu-C18 diacid])WLLAQKGKEDDWKHNITQ [Compound 39, N{Epsilon-24}-[(4S)-4-carboxy-4-[[(4S)-4-carboxy-4-[[(4S)-4-carboxy-4-(17-carboxyheptadecanoylamino)butanoyl]amino]butanoyl]amino]butanoyl]-[Aib2,Nle14,Lys24,Glu33,Asp34]-hGIP]
96 h | 0.0447 nM | – | – | CCCC[C@H](NC(=O)[C@H](C)NC(=O)[C@@H](NC(=O)[C@H](CO)NC(=O)[C@H](Cc1ccc(O)cc1)NC(=O)[C@H](CC(=O)O)NC(=O)[C@H](CO)NC(=O)[C@@H](NC(=O)[C@H](Cc1ccccc1)NC(=O)[C@@H](NC(=O)CNC(=O)[C@H](CCC(=O)O)NC(=O)C(C)(C)NC(=O)[C@@H](N)Cc1ccc(O)cc1)[C@@H](C)O)[C@@H](C)CC)[C@@H](C)CC)C(=O)N[C@@H](CC(=O)O)C(=O)N[C@@H](CCCCN)C(=O)N[C@H](C(=O)N[C@@H](CCCNC(=N)N)C(=O)N[C@@H](CCC(N)=O)C(=O)N[C@@H](CCC(N)=O)C(=O)N[C@@H](CC(=O)O)C(=O)N[C@@H](Cc1ccccc1)C(=O)N[C@H](C(=O)N[C@@H](CCCCNC(=O)COCCOCCNC(=O)COCCOCCNC(=O)CC[C@H](NC(=O)C1CCC(CNC(=O)CCCCCCCCCCCCCCCCCCC(=O)O)CC1)C(=O)O)C(=O)N[C@@H](Cc1c[nH]c2ccccc12)C(=O)N[C@@H](CC(C)C)C(=O)N[C@@H](CC(C)C)C(=O)N[C@@H](C)C(=O)N[C@@H](CCC(N)=O)C(=O)N[C@@H](CCCCN)C(=O)NCC(=O)O)C(C)C)[C@@H](C)CC (stereo partly drawn) [Compound 3, N{Epsilon-24}-[2-[2-[2-[[2-[2-[2-[[(4S)-4-carboxy-4-[[4-[(19-carboxynonadecanoylamino)methyl]cyclohexanecarbonyl]amino]butanoyl]amino]ethoxy]ethoxy]acetyl]amino]ethoxy]ethoxy]acetyl]-[Aib2,Nle14,Arg18,Lys24]-hGIP(1-31)]
– | 0.009 nM | > 100 nM | > 100 nM | H-Y[Aib]EGTFISDYSIA[Nle]DKIHQQDFVK([γGlu-γGlu-γGlu-C18 diacid])WLLAQKGKEEDWKHNITQ [Compound 38, N{Epsilon-24}-[(4S)-4-carboxy-4-[[(4S)-4-carboxy-4-[[(4S)-4-carboxy-4-(17-carboxyheptadecanoylamino)butanoyl]amino]butanoyl]amino]butanoyl]-[Aib2,Nle14,Lys24,Glu33,Glu34]-hGIP]
